Some test systems named below: Bacillus subtilis 168 HT; Escherichia coli MG1655; Listeria innocua; Micrococcus luteus A270; Escherichia coli; Escherichia coli UB1005; Candida albicans.
Common to all, as to assay: ≥ marks a high value that may be exact or a test limit, other limits are often not marked, values filed in µg/mL are converted to µM
The subject of experiment [1] is Burkholderia thailandensis.
Experiment [2] concerns Bacillus subtilis ATCC 9372.
The subject of experiment [3] is Bacillus anthracis Sterne 34F2.
Experiment [4] has as its system Staphylococcus aureus ATCC 700699.
Experiment [5] has as its system Klebsiella pneumoniae ATCC 700603.
The test system of experiment [6] is Staphylococcus aureus ATCC 33591.
The subject of experiment [7] is Staphylococcus aureus ATCC 29213.
Experiment [8] has as its system Escherichia coli ATCC 25922.
Experiment [9] deals with Pseudomonas aeruginosa ATCC 27853.
Experiment [10] has as its system Pseudomonas aeruginosa ATCC 15442.
Experiment [11] has as its system Enterococcus faecalis ATCC 29212.
Experiment [12] has as its system Staphylococcus epidermidis ATCC 35984.
Experiment [13] deals with Staphylococcus aureus ATCC 25923.
The test system of experiment [14] is Staphylococcus aureus ATCC 6538.
The subject of experiment [15] is Staphylococcus epidermidis.
The test system of experiment [16] is Pseudomonas aeruginosa H103.
Experiment [17] relates to Salmonella enterica serovar Typhimurium.

In brackets after ≈: the same amount, converted by molar mass. A value given as a limit tells only on which side of the number the result lay.

Drawing on DBAASP, this text covers MIC for 11 molecules.

By MIC is commonly meant the lowest concentration found to suppress growth. High values mean a need for much substance, low ones inhibition by little substance.

As to `CSCC[C@H](NC(=O)[C@H](CCCCN)NC(=O)[C@H](CCCCN)NC(=O)[C@H](CC(C)C)NC(=O)[C@H](CC(C)C)NC(=O)[C@H](CCCN=C(N)N)NC(=O)[C@H](CCCN=C(N)N)NC(=O)[C@H](CCCCN)NC(=O)[C@H](C)N)C(=O)N[C@@H](CCCCN)C(=O)O` [AKRRLLKKMK], the MIC against Bacillus subtilis 168 HT and against Escherichia coli MG1655 was at least 101 µM throughout.

For the molecule `CSCC[C@H](NC(=O)[C@H](Cc1ccccc1)NC(=O)CNC(=O)CNC(=O)[C@H](Cc1ccc(O)cc1)NC(=O)[C@H](CCCN=C(N)N)NC(=O)[C@H](CCCCN)NC(=O)[C@H](CCC(=O)O)NC(=O)[C@H](CCSC)NC(=O)[C@H](CCC(=O)O)NC(=O)[C@@H]1CCCN1C(=O)[C@@H]1CCCN1C(=O)[C@H](CCC(=O)O)NC(=O)[C@H](CCCCN)NC(=O)[C@H](CO)NC(=O)[C@H](Cc1ccc(O)cc1)NC(=O)[C@H](CO)NC(=O)[C@H](CCC(=O)O)NC(=O)CNC(=O)[C@H](CCC(=O)O)NC(=O)[C@H](CCC(=O)O)NC(=O)[C@H](CCC(=O)O)NC(=O)[C@H](CO)NC(=O)[C@@H]1CCCN1C(=O)[C@H](CC(C)C)NC(=O)[C@@H]1CCCN1C(=O)[C@H](CCC(=O)O)NC(=O)[C@H](C)NC(=O)[C@H](Cc1ccccc1)NC(C)=O)C(N)=O` [FAEPLPSEEEGESYSKEPPEMEKRYGGFM], the minimum inhibitory concentration (MIC) in experiment [1] was at least 50 µM; in [2], at least 100 µM; in [3], at least 100 µM.

Turning to `CC[C@H](C)[C@H](NC(=O)[C@H](C)NC(=O)[C@@H](NC(=O)[C@@H](NC(=O)CN)C(C)C)C(C)C)C(=O)N[C@@H](CC(C)C)C(=O)N[C@@H](CCCCN)C(=O)NCC(=O)N[C@@H](C)C(=O)N[C@@H](C)C(=O)N[C@@H](CCCCN)C(=O)N[C@@H](CC(=O)O)C(=O)N[C@H](C(=O)N[C@@H](C)C(=O)NCC(=O)N[C@@H](Cc1cnc[nH]1)C(=O)N[C@@H](CC(C)C)C(=O)N[C@@H](C)C(=O)N[C@@H](CO)C(=O)N[C@@H](CCCCN)C(=O)N[C@H](C(=O)N[C@@H](CCSC)C(=O)N[C@@H](CC(N)=O)C(=O)N[C@@H](CCCCN)C(=O)N[C@@H](CC(C)C)C(N)=O)C(C)C)[C@@H](C)CC` [GVVAILKGAAKDIAGHLASKVMNKL], the MIC in experiment [4] was at least 100 µM; in [5] it was 50 µM (≈ 125 µg/mL); in experiment [6] it was at least 100 µM; in experiment [7] it was above 100 µM; in experiment [8] it was 50 µM (≈ 125 µg/mL); in [9], above 100 µM.

As for `CC[C@H](C)[C@H](NC(=O)[C@H](CC(=O)O)NC(=O)[C@H](CCCCN)NC(=O)[C@H](C)NC(=O)[C@H](C)NC(=O)[C@H](C)NC(=O)[C@H](CCCCN)NC(=O)[C@H](CC(C)C)NC(=O)[C@@H](NC(=O)[C@H](CC(=O)O)NC(=O)[C@@H](NC(=O)[C@@H](NC(=O)CN)C(C)C)C(C)C)[C@@H](C)CC)C(=O)N[C@@H](C)C(=O)NCC(=O)N[C@@H](Cc1cnc[nH]1)C(=O)N[C@@H](CC(C)C)C(=O)N[C@@H](C)C(=O)N[C@@H](CO)C(=O)N[C@@H](CCCCN)C(=O)N[C@H](C(=O)N[C@@H](CCSC)C(=O)N[C@@H](CC(N)=O)C(=O)N[C@@H](CCCCN)C(=O)N[C@@H](CC(C)C)C(N)=O)C(C)C` [GVVDILKAAAKDIAGHLASKVMNKL], the minimum inhibitory concentration (MIC) in experiment [4] was at least 100 µM; in experiment [5] it was 50 µM (≈ 128 µg/mL); in [6], at least 100 µM; in experiment [7], above 100 µM; in experiment [8] it was 25 µM (≈ 64.1 µg/mL); in experiment [9] it was 100 µM (≈ 256 µg/mL).

In the case of `CC(C)C[C@H](NC(=O)[C@H](C)NC(=O)[C@H](Cc1cnc[nH]1)NC(=O)[C@H](Cc1cnc[nH]1)NC(=O)CNC(=O)[C@H](CC(C)C)NC(=O)[C@@H](N)Cc1cnc[nH]1)C(=O)N[C@@H](CC(=O)O)C(=O)N[C@@H](Cc1cnc[nH]1)C(=O)N[C@@H](CC(C)C)C(=O)N[C@@H](CC(C)C)C(=O)N[C@@H](CCCCN)C(=O)O` [HLGHHALDHLLK], the MIC in experiment [10] is at least 8990 µM; in experiment [11], above 8990 µM; in [12], at least 8990 µM; in experiment [13] it was 8990 µM (≈ 12500 µg/mL); in [7], above 8990 µM; in experiment [14] it was 8990 µM (≈ 12500 µg/mL).

As to `CC(C)C[C@H](NC(=O)[C@H](CO)NC(=O)[C@H](Cc1cnc[nH]1)NC(=O)[C@H](CO)NC(=O)[C@H](CC(C)C)NC(=O)[C@H](CC(C)C)NC(=O)[C@@H](N)CCCCN)C(=O)O` [KLLSHSL], the results for the MIC in the experiment with Listeria innocua, against Micrococcus luteus A270 and against Escherichia coli were at least 39.2 µM, at least 39.2 µM and 78.4 µM (≈ 62.5 µg/mL), respectively.

As for `CC[C@H](C)[C@H](NC(=O)CNC(=O)[C@@H](NC(=O)[C@H](CCCCN)NC(=O)[C@H](CCCCN)NC(=O)CNC(=O)[C@@H](NC(=O)[C@H](CCCCN)NC(=O)[C@H](Cc1c[nH]c2ccccc12)NC(=O)[C@H](CCCCN)NC(=O)[C@H](CCSC)NC(C)=O)[C@@H](C)CC)[C@@H](C)CC)C(=O)NCC(=O)N[C@@H](CCCCN)C(=O)N[C@@H](Cc1ccccc1)C(=O)N[C@@H](CC(C)C)C(=O)N[C@@H](Cc1cnc[nH]1)C(=O)N[C@@H](CO)C(=O)N[C@@H](C)C(=O)N[C@@H](CCCCN)C(=O)N[C@@H](CCCCN)C(=O)N[C@@H](Cc1ccccc1)C(=O)N[C@@H](CC(N)=O)C(N)=O` [MKWKIGKKIGIGKFLHSAKKFN], the minimum inhibitory concentration (MIC) in [1] is at least 50 µM; in experiment [2], at least 100 µM; in experiment [3] it was at least 100 µM.

As to `CC(C)[C@H](NC(=O)[C@H](CCC(N)=O)NC(=O)[C@H](CS)NC(=O)[C@H](C)NC(=O)[C@H](CCCCN)NC(=O)[C@H](CCCN=C(N)N)NC(=O)[C@H](CC(N)=O)NC(=O)[C@H](CCCCN)NC(=O)[C@H](CCCCN)NC(=O)[C@H](Cc1c[nH]c2ccccc12)NC(=O)[C@@H](NC(=O)[C@H](CCCCN)NC(=O)CNC(=O)[C@@H](N)CC(N)=O)[C@@H](C)O)C(=O)N[C@@H](CCCCN)C(=O)O` [NGKTWKKNRKACQVK], the MIC in the experiment with Bacillus subtilis 168 HT and with Escherichia coli MG1655 was at least 71.5 µM in each case.

With `CC[C@H](C)[C@H](NC(=O)[C@@H](N)CCCN=C(N)N)C(=O)N[C@@H](CCCN=C(N)N)C(=O)N[C@@H](CCCN=C(N)N)C(=O)N[C@@H](Cc1c[nH]c2ccccc12)C(=O)N[C@@H](CCCCN)C(=O)N[C@@H](Cc1ccccc1)C(=O)N[C@@H](CCCN=C(N)N)C(=O)N[C@@H](Cc1c[nH]c2ccccc12)C(=O)O` [RIRRWKFRW], the MIC in experiment [15] was 1.3 µM (≈ 1.82 µg/mL); in experiment [11] it was 5.3 µM (≈ 7.44 µg/mL); against Escherichia coli UB1005 it was 5.3 µM (≈ 7.44 µg/mL); in [16], at least 42.6 µM; in [13], 1.3 µM (≈ 1.82 µg/mL); against Candida albicans, 21.3 µM (≈ 29.9 µg/mL). This molecule came in with an MIC in [17] of 5.3 µM (≈ 7.44 µg/mL).

As for `CC(C)C[C@H](NC(=O)[C@@H](N)CCCN=C(N)N)C(=O)N[C@@H](Cc1c[nH]c2ccccc12)C(=O)N[C@@H](Cc1c[nH]c2ccccc12)C(=O)N[C@@H](Cc1c[nH]c2ccccc12)C(=O)N[C@@H](Cc1c[nH]c2ccccc12)C(=O)N[C@@H](CCCN=C(N)N)C(=O)N[C@@H](CCCN=C(N)N)C(=O)N[C@@H](CCCCN)C(=O)O` [RLWWWWRRK], the MIC in experiment [15] stood at 0.5 µM (≈ 0.736 µg/mL); in experiment [11], 4.1 µM (≈ 6.04 µg/mL); against Escherichia coli UB1005, 4.1 µM (≈ 6.04 µg/mL); in experiment [16], 16.6 µM (≈ 24.4 µg/mL); in experiment [13], 2.1 µM (≈ 3.09 µg/mL); with Candida albicans it was 4.1 µM (≈ 6.04 µg/mL). In experiment [17], this molecule displayed an MIC of 8.3 µM (≈ 12.2 µg/mL).

For `CC(C)C[C@H](NC(=O)[C@H](Cc1ccccc1)NC(=O)[C@H](CS)NC(=O)[C@@H](NC(=O)[C@H](CC(C)C)NC(=O)[C@H](CCCN=C(N)N)NC(=O)[C@H](Cc1c[nH]c2ccccc12)NC(=O)[C@@H](N)CCCN=C(N)N)C(C)C)C(=O)N[C@@H](CS)C(=O)N[C@@H](CCCN=C(N)N)C(=O)N[C@@H](CCCN=C(N)N)C(=O)N[C@@H](CCCCN)C(=O)N[C@@H](CCCCN)C(=O)N[C@H](C(=O)O)C(C)C` [RWRLVCFLCRRKKV], the minimal inhibitory concentration (MIC) was 8.6 µM (≈ 16 µg/mL) with Bacillus subtilis 168 HT and 17.2 µM (≈ 32.1 µg/mL) in the experiment with Escherichia coli MG1655.
